According to the supplement of paper PMC10883282:

Experiments:
Experiment in all cases: relative viability vs DMSO control (72 h) (fraction); higher = more viable cells
SYO-1 = test system: SYO-1
Outline: (§1)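 Relative viability is percent growth read by ATPLite and averaged over up to triplicate wells. Sarcoma cells were seeded in 384-well plates to reach 80–90% confluence and given 2.5 µl of serially diluted compound after 24 h, from source plates of 10 mM to 0.0002 mM. Incubation lasted 72 h at 37 °C, 5% CO2, with 0.1% DMSO vehicle and a 5 µM positive control, and the data were rescaled so 1 equals full and 0 equals none.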

RD = test system: RD
Outline: as §1

SW684 = test system: SW684
Outline: as §1

SW872 = test system: SW872
Outline: as §1

HS729 = test system: HS729
Outline: as §1

SW1353 = test system: SW1353
Outline: as §1

KHOS-NP = test system: KHOS-NP
Outline: as §1

G401 = test system: G401
Outline: as §1

HT1080 = test system: HT1080
Outline: as §1

RD-ES = test system: RD-ES
Outline: as §1

SK-LMS-1 = test system: SK-LMS-1
Outline: as §1

KHOS-240S = test system: KHOS-240S
Outline: as §1

O=C(c1ccc(F)c(F)c1Nc1ccc(I)cc1F)N1CC(O)([C@@H]2CCCCN2)C1 [Cobimetinib]
Details	relative viability
G401, 0.00017 µM	0.99
G401, 0.00051 µM	1.03
G401, 0.00152 µM	0.993
G401, 0.00457 µM	0.99
G401, 0.01372 µM	0.951
G401, 0.04115 µM	0.896
G401, 0.1235 µM	0.786
G401, 0.3704 µM	0.643
G401, 1.111 µM	0.396
G401, 3.333 µM	0.0971
G401, 10 µM	0.0011
HS729, 0.00017 µM	0.9644
HS729, 0.00051 µM	1
HS729, 0.00152 µM	0.97
HS729, 0.00457 µM	0.962
HS729, 0.01372 µM	0.915
HS729, 0.04115 µM	0.922
HS729, 0.1235 µM	0.876
HS729, 0.3704 µM	0.852
HS729, 1.111 µM	0.763
HS729, 3.333 µM	0.6553
HS729, 10 µM	0.241
HT1080, 0.00017 µM	1.07
HT1080, 0.00051 µM	1.087
HT1080, 0.00152 µM	1.067
HT1080, 0.00457 µM	1.049
HT1080, 0.01372 µM	1.06
HT1080, 0.04115 µM	0.876
HT1080, 0.1235 µM	0.586
HT1080, 0.3704 µM	0.4917
HT1080, 1.111 µM	0.39
HT1080, 3.333 µM	0.247
HT1080, 10 µM	0.0054
KHOS-240S, 0.00017 µM	1.07
KHOS-240S, 0.00051 µM	1.07
KHOS-240S, 0.00152 µM	1.09
KHOS-240S, 0.00457 µM	1.05
KHOS-240S, 0.01372 µM	1.03
KHOS-240S, 0.04115 µM	0.936
KHOS-240S, 0.1235 µM	0.79
KHOS-240S, 0.3704 µM	0.709
KHOS-240S, 1.111 µM	0.669
KHOS-240S, 3.333 µM	0.549
KHOS-240S, 10 µM	0.0497
KHOS-NP, 0.00017 µM	1.09
KHOS-NP, 0.00051 µM	1.097
KHOS-NP, 0.00152 µM	1.085
KHOS-NP, 0.00457 µM	1.081
KHOS-NP, 0.01372 µM	1.08
KHOS-NP, 0.04115 µM	0.912
KHOS-NP, 0.1235 µM	0.438
KHOS-NP, 0.3704 µM	0.319
KHOS-NP, 1.111 µM	0.275
KHOS-NP, 3.333 µM	0.28
KHOS-NP, 10 µM	0.187
RD, 0.00017 µM	1.1
RD, 0.00051 µM	1.1
RD, 0.00152 µM	1.07
RD, 0.00457 µM	1.02
RD, 0.01372 µM	0.88
RD, 0.04115 µM	0.766
RD, 0.1235 µM	0.636
RD, 0.3704 µM	0.539
RD, 1.111 µM	0.461
RD, 3.333 µM	0.346
RD, 10 µM	0.0053
RD-ES, 0.00017 µM	0.999
RD-ES, 0.00051 µM	1.02
RD-ES, 0.00152 µM	0.985
RD-ES, 0.00457 µM	0.986
RD-ES, 0.01372 µM	0.945
RD-ES, 0.04115 µM	0.979
RD-ES, 0.1235 µM	0.955
RD-ES, 0.3704 µM	0.982
RD-ES, 1.111 µM	0.974
RD-ES, 3.333 µM	0.91
RD-ES, 10 µM	0.0147
SK-LMS-1, 0.00017 µM	1.06
SK-LMS-1, 0.00051 µM	1.09
SK-LMS-1, 0.00152 µM	1.05
SK-LMS-1, 0.00457 µM	1.02
SK-LMS-1, 0.01372 µM	0.989
SK-LMS-1, 0.04115 µM	0.767
SK-LMS-1, 0.1235 µM	0.584
SK-LMS-1, 0.3704 µM	0.398
SK-LMS-1, 1.111 µM	0.299
SK-LMS-1, 3.333 µM	0.1728
SK-LMS-1, 10 µM	0.0129
SW684, 0.00017 µM	1.23
SW684, 0.00051 µM	1.15
SW684, 0.00152 µM	1.17
SW684, 0.00457 µM	1.2
SW684, 0.01372 µM	1.13
SW684, 0.04115 µM	1.063
SW684, 0.1235 µM	0.941
SW684, 0.3704 µM	0.738
SW684, 1.111 µM	0.536
SW684, 3.333 µM	0.357
SW684, 10 µM	-0.00433
SW872, 0.00017 µM	1.06
SW872, 0.00051 µM	1.01
SW872, 0.00152 µM	0.923
SW872, 0.00457 µM	0.775
SW872, 0.01372 µM	0.67
SW872, 0.04115 µM	0.622
SW872, 0.1235 µM	0.606
SW872, 0.3704 µM	0.574
SW872, 1.111 µM	0.498
SW872, 3.333 µM	0.39
SW872, 10 µM	0.00283
SW1353, 0.00017 µM	0.989
SW1353, 0.00051 µM	0.983
SW1353, 0.00152 µM	1
SW1353, 0.00457 µM	0.979
SW1353, 0.01372 µM	0.899
SW1353, 0.04115 µM	0.838
SW1353, 0.1235 µM	0.778
SW1353, 0.3704 µM	0.704
SW1353, 1.111 µM	0.669
SW1353, 3.333 µM	0.617
SW1353, 10 µM	0.0141
SYO-1, 0.00017 µM	0.985
SYO-1, 0.00051 µM	0.998
SYO-1, 0.00152 µM	0.964
SYO-1, 0.00457 µM	0.9431
SYO-1, 0.01372 µM	0.928
SYO-1, 0.04115 µM	0.907
SYO-1, 0.1235 µM	0.929
SYO-1, 0.3704 µM	0.84
SYO-1, 1.111 µM	0.719
SYO-1, 3.333 µM	0.566
SYO-1, 10 µM	-0.0086
